The results in this text go back to ChEMBL document CHEMBL1201862, “PubChem BioAssay data set” (2004).

The structures appear in SMILES notation.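 Grown in 96-well plates, cells were treated for 48 hours with each compound at five concentrations. Insufficient inhibition: endpoint recorded as highest concentration tested. Abbreviation: GI50, concentration required for 50% inhibition of growth.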 Calls of active or inactive are those of the source. Rule as the data show it: active = GI50 up to about 1.1 µM and inactive = higher.

Test systems include SK-OV-3; CAKI-1; OVCAR-8; IGROV-1; SK-MEL-28; NCI-H226; NCI-H460; HCT-15; HL-60; TK-10; SF-539; NCI-H522; ACHN; COLO 205; SN12C; LOX IMVI.
Assay in all cases: NCI anticancer screen, dose series, 48 h

As to `C[n+]1cn(CC(=O)c2ccccc2)c(C(N)=O)c1N`, the GI50 in the assay on SK-OV-3, with CAKI-1, in the assay with OVCAR-8, with IGROV-1, with SK-MEL-28 and in the assay on NCI-H226 was > 100 µM (inactive) throughout. Besides, the GI50 is > 100 µM (inactive) in the assay with NCI-H460; 80.7 µM in the assay with HCT-15; 0.337 µM (active) in the assay with HL-60; > 100 µM (inactive) in the assay on TK-10; > 100 µM (inactive) in the assay with SF-539; 77.6 µM (inactive) in the assay on NCI-H522. For the same compound, the GI50 in the assay with ACHN is > 100 µM (inactive); in the assay on COLO 205 it was 41.4 µM (inactive); with SN12C, > 100 µM (inactive); in the assay on LOX IMVI it was > 100 µM (inactive).

In the case of `Cc1ccc(C)c(N2C(=O)C(=O)C(c3nc4ccccc4s3)/C(=N/N)C2=O)c1` (stereo not drawn), the GI50 in the assay on SK-OV-3, in the assay with CAKI-1, in the assay on IGROV-1, with SK-MEL-28, in the assay on NCI-H226 and in the assay with NCI-H460 was > 100 µM (inactive) in each case. Also, the GI50 in the assay on HCT-15 was > 100 µM; in the assay on HL-60, > 100 µM (inactive); with TK-10, > 100 µM (inactive); in the assay with SF-539, > 100 µM (inactive); with NCI-H522, > 100 µM (inactive); in the assay on ACHN, > 100 µM (inactive). Further, the values for the GI50 with COLO 205, in the assay on SN12C and with LOX IMVI were > 39.3 µM (inactive), > 100 µM (inactive) and > 100 µM (inactive), respectively.

Take `COC(=O)/C(=N/O)C(C(=O)C=C(C)C)C(=O)C(=O)Nc1nc2ccc([N+](=O)[O-])cc2s1` (stereo not drawn): the GI50 with SK-OV-3 is 24.8 µM (inactive); in the assay on CAKI-1, 24.2 µM (inactive); in the assay on OVCAR-8 it was 39.5 µM (inactive); with IGROV-1, 36.9 µM (inactive); in the assay on SK-MEL-28, 58.7 µM (inactive); with NCI-H226, 23.6 µM (inactive). The GI50 with NCI-H460 is 37.9 µM (inactive); with HCT-15 it was 30.7 µM; in the assay on HL-60 it was 38.2 µM (inactive); with TK-10, 27.3 µM (inactive); in the assay on SF-539 it was 23.2 µM (inactive); with NCI-H522 it was 32.1 µM (inactive). Moreover, the GI50 was 24.4 µM (inactive) in the assay on ACHN, 41.6 µM (inactive) in the assay on COLO 205, 32.2 µM (inactive) in the assay on SN12C and 22.9 µM (inactive) with LOX IMVI.

Consider `COC12OCCN(C)C1=CC(=O)C1N=NCC12` (stereo not drawn), for which the GI50 in the assay on SK-OV-3, in the assay with CAKI-1, in the assay on OVCAR-8, in the assay on IGROV-1, in the assay on SK-MEL-28 and with NCI-H226 was > 100 µM (inactive) each time. In addition, the GI50 in the assay on NCI-H460 was > 100 µM (inactive); with HCT-15 it was > 100 µM; in the assay on HL-60, > 100 µM (inactive); in the assay with TK-10, > 100 µM (inactive); in the assay with SF-539, > 100 µM (inactive); in the assay on NCI-H522 it was > 100 µM (inactive). The GI50 in the assay with COLO 205, with SN12C and with LOX IMVI was > 100 µM (inactive) in each case.

Consider `Cc1ccccc1C(=O)c1cc(O)ccc1O`, for which the GI50 in the assay with SK-OV-3 is > 100 µM (inactive); in the assay with CAKI-1, > 100 µM (inactive); in the assay with OVCAR-8, > 100 µM (inactive); with IGROV-1, 99.5 µM (inactive); in the assay on NCI-H226 it was > 100 µM (inactive); in the assay on NCI-H460 it was 85.9 µM (inactive). The GI50 in the assay on HCT-15 is 50.1 µM; in the assay on HL-60 it was 31.8 µM (inactive); with TK-10, > 100 µM (inactive); with SF-539, > 100 µM (inactive); with NCI-H522 it was 27.2 µM (inactive); in the assay on ACHN it was > 100 µM (inactive). Moreover, the GI50 in the assay on COLO 205 was 50.6 µM (inactive); with SN12C, > 100 µM (inactive).

Consider `CN(C)C(=S)/N=c1\ss/c(=N\C(=S)N(C)C)n1-c1cccc(Cl)c1`, for which the GI50 was > 10 µM (inactive) in the assay on SK-OV-3; > 100 µM (inactive) in the assay on CAKI-1; > 100 µM (inactive) in the assay with OVCAR-8; > 100 µM (inactive) in the assay on IGROV-1; > 100 µM (inactive) with SK-MEL-28; > 100 µM (inactive) in the assay with NCI-H226. Besides, the GI50 was > 100 µM (inactive) with NCI-H460; > 100 µM in the assay on HCT-15; > 100 µM (inactive) in the assay on HL-60; > 100 µM (inactive) in the assay on TK-10; > 100 µM (inactive) in the assay on SF-539; > 100 µM (inactive) in the assay with NCI-H522. In addition, the GI50 in the assay with ACHN, in the assay on COLO 205, in the assay with SN12C and with LOX IMVI was > 100 µM (inactive) throughout.

On to `CC1=Nc2c(O)nc(S)nc2NC(c2ccc(Cl)c(Cl)c2)C1` (stereo not drawn), for which the GI50 is 32.1 µM (inactive) with SK-OV-3; 30.3 µM (inactive) with CAKI-1; 18.7 µM (inactive) in the assay on OVCAR-8; 20.1 µM (inactive) in the assay with IGROV-1; 18.3 µM (inactive) in the assay with SK-MEL-28; 22.6 µM (inactive) with NCI-H226. Moreover, the GI50 in the assay with NCI-H460 was 67.8 µM (inactive); with HCT-15, 33.7 µM; in the assay on HL-60, > 100 µM (inactive); in the assay on TK-10 it was > 55.5 µM (inactive); with SF-539 it was 21.1 µM (inactive); with NCI-H522, 74.3 µM (inactive). Besides, the GI50 in the assay with ACHN was > 65.2 µM (inactive); in the assay on COLO 205 it was 18 µM (inactive); in the assay on SN12C, 20.1 µM (inactive); with LOX IMVI it was 20 µM (inactive).

On to `Cn1cc2ccccc2c1-c1nc(F)nc(F)n1`, for which the GI50 with SK-OV-3, with CAKI-1, in the assay on IGROV-1, with SK-MEL-28, in the assay with NCI-H226 and in the assay with NCI-H460 was > 100 µM (inactive) each time. In addition, the GI50 in the assay with HCT-15 was > 100 µM; with HL-60, 45.5 µM (inactive); in the assay on TK-10, > 100 µM (inactive); in the assay with SF-539 it was > 100 µM (inactive); with NCI-H522 it was > 100 µM (inactive); in the assay on ACHN, > 100 µM (inactive). Besides, the GI50 with COLO 205, in the assay on SN12C and in the assay with LOX IMVI was > 100 µM (inactive) throughout.

Consider `O=C(C#Cc1ccccc1)N1c2ccccc2CC1c1c[nH]c2ccccc12` (stereo not drawn), for which the GI50 is 20.4 µM (inactive) in the assay on SK-OV-3; 11.4 µM (inactive) in the assay with CAKI-1; 11.6 µM (inactive) with OVCAR-8; 3.73 µM (inactive) in the assay on IGROV-1; 14.9 µM (inactive) in the assay on SK-MEL-28; 9.79 µM (inactive) with NCI-H226. Also, the GI50 in the assay with NCI-H460 was 18.6 µM (inactive); in the assay with HCT-15, 11.5 µM; with HL-60, 14.7 µM (inactive); in the assay on TK-10 it was 21.4 µM (inactive); with SF-539, 13 µM (inactive); with NCI-H522, 11 µM (inactive). Moreover, the GI50 with ACHN was 19.7 µM (inactive); in the assay with COLO 205, 14.5 µM (inactive); with SN12C, 13 µM (inactive); in the assay on LOX IMVI it was 6.73 µM (inactive).

Regarding `COc1ccc2c3c([nH]c(=O)c2c1C(=O)O)-c1ccccc1CC3`, the GI50 in the assay with SK-OV-3 was > 100 µM (inactive); in the assay with CAKI-1, > 100 µM (inactive); with IGROV-1 it was > 100 µM (inactive); in the assay on SK-MEL-28, > 100 µM (inactive); in the assay with NCI-H226 it was 65.8 µM (inactive); in the assay with NCI-H460 it was > 100 µM (inactive). Further, the GI50 was > 100 µM in the assay on HCT-15; > 100 µM (inactive) in the assay on HL-60; > 100 µM (inactive) in the assay on TK-10; > 100 µM (inactive) in the assay with SF-539; > 100 µM (inactive) with NCI-H522; > 100 µM (inactive) in the assay with ACHN. Besides, the GI50 in the assay on COLO 205, in the assay with SN12C and in the assay with LOX IMVI was > 100 µM (inactive) in each case.

For `OCC1CC2CC1C1(C2)OCCO1` (stereo not drawn), the GI50 with SK-OV-3, with CAKI-1, with OVCAR-8, in the assay on IGROV-1, with SK-MEL-28 and in the assay on NCI-H226 was > 100 µM (inactive) in each case. Besides, the GI50 with NCI-H460, in the assay with HL-60, with TK-10, in the assay on SF-539, with NCI-H522 and in the assay on ACHN was > 100 µM (inactive) each time. In addition, the GI50 in the assay on COLO 205, in the assay on SN12C and in the assay on LOX IMVI was > 100 µM (inactive) in each case.

With `O=Cc1[nH]c2ccccc2c1Br`, the GI50 in the assay with SK-OV-3 was 20.8 µM (inactive); in the assay on CAKI-1 it was > 100 µM (inactive); in the assay with OVCAR-8, 23.7 µM (inactive); in the assay with IGROV-1 it was 26.7 µM (inactive); in the assay with SK-MEL-28, 25.1 µM (inactive); in the assay with NCI-H226 it was 29.8 µM (inactive). Further, the GI50 with HL-60 was 13.8 µM (inactive); in the assay on TK-10, 36.6 µM (inactive); in the assay with SF-539, 15.3 µM (inactive); in the assay on NCI-H522, 56.8 µM (inactive); in the assay on ACHN, 26 µM (inactive); in the assay on COLO 205, 17.7 µM (inactive). In addition, the figures for the GI50 in the assay with SN12C and in the assay with LOX IMVI were 22.6 µM (inactive) and 26.7 µM (inactive), respectively.

Turning to `COC1CC(O[C@H]2CC[C@@]3(C)C(=CCC4(O)C3CCC35C(=O)OC6(C)O[C@@]43CCC65)C2)OC(C)C1O` (stereo partly drawn), the GI50 with SK-OV-3, with CAKI-1, with OVCAR-8, in the assay on IGROV-1, in the assay on SK-MEL-28 and with NCI-H226 was > 100 µM (inactive) throughout. The GI50 in the assay with NCI-H460 is > 100 µM (inactive); in the assay with HCT-15, > 100 µM; with HL-60, > 100 µM (inactive); in the assay on TK-10, > 100 µM (inactive); in the assay on SF-539 it was > 100 µM (inactive); in the assay with NCI-H522, > 100 µM (inactive). The GI50 in the assay on ACHN, in the assay on COLO 205 and in the assay on SN12C was > 100 µM (inactive) each time.
